target: T1, human PDE10A2 (Homo sapiens, UniProt Q9Y233); test: PDE10 fluorescence polarization (IMAP FP) inhibition assay; type: biochemical; settings: apparent inhibition constant; FAM-labeled cAMP 50 nM; lysate of AD293 cells transfected with human PDE10A2; room temperature; read-out: PDE10a Ki
T1 construct: made in house; host or cells: AD293 cells, transiently transfected; The cytosolic supernatant of the lysate served as the enzyme
Procedure: The activity of the compounds in accordance with the present invention as PDE10 inhibitors may be readily determined without undue experimentation using a fluorescence polarization (FP) methodology that is well known in the art (Huang, W., et al., J. Biomol Screen, 2002, 7: 215).
In a typical experiment the PDE 10 inhibitory activity of the compounds of the present invention was determined in accordance with the following experimental method. PDE 10A2 was amplified from human fetal brain cDNA (Clontech, Mountain View, Calif.) using a forward primer corresponding to nucleotides 56-77 of human PDE10A2 (Accession No. AF127480, Genbank Identifier 4894716), containing a Kozak consensus sequence, and a reverse primer corresponding to nucleotides 2406-2413 of human PDE10A2 (Accession No. AF127480, Genbank Identifier 4894716). Amplification with Easy-A polymerase (Stratagene, La Jolla, Calif.) was 95° C. for 2 minutes followed by thirty three cycles of 95° C. for 40 seconds, 55° C. for 30 seconds, and 72° C. for 2 minutes 48 seconds. Final extension was 72° C. for 7 minutes. The PCR product was TA cloned into pcDNA3.2-TOPO (Invitrogen, Carlsbad, Calif.) according to standard protocol. AD293 cells with 70-80% confluency were transiently transfected with human PDE10A2/pcDNA3.2-TOPO using Lipofectamine 2000 according to manufacturer specifications (Invitrogen, Carlsbad, Calif.). Cells were harvested 48 hours post-transfection and lysed by sonication (setting 3, 10×5 sec pulses) in a buffer containing 20 mM HEPES, 1 mM EDTA and protease inhibitor cocktail (Roche). Lysate was collected by centrifugation at 75,000×g for 20 minutes. Supernatant containing the cytoplasmic fraction was used for evaluation of PDE10A2 activity. The fluorescence polarization assay for cyclic nucleotide phosphodiesterases was performed using an IMAP® FP kit supplied by Molecular Devices, Sunnyvale, Calif. (product # R8139). IMAP® technology has been applied previously to phosphodiesterase assays (Huang, W., et al., J. Biomol Screen, 2002, 7: 215). Assays were performed at room temperature in 384-well microtiter plates with an incubation volume of 20.2 μL. Solutions of test compounds were prepared in DMSO and serially diluted with DMSO to yield 8 μL of each of 10 solutions differing by 3-fold in concentration, at 32 serial dilutions per plate. 100% inhibition is determined using a known PDE 10 inhibitor, which can be any compound that is present at 5,000 times its Ki value in the assay described as follows, such as papaverine (see Siuciak, et al. Neuropharmacology (2006) 51:386-396; Becker, et al. Behav Brain Res (2008) 186(2):155-60; Threlfell, et al., J Pharmacol Exp Ther (2009) 328(3):785-795), 2-{4-[pyridin-4-yl-1-(2,2,2-trifluoroethyl)-1H-pyrazol-3-yl]phenoxymethyl}quinoline succinic acid or 2-[4-(1-methyl-4-pyridin-4-yl-1H-pyrazol-3-yl)-phenoxymethyl]quinoline succinic acid (see Schmidt, et al. J Pharmacol Exp Ther (2008) 325:681-690; Threlfell, et al., J Pharmacol Exp Ther (2009) 328(3): 785-795). 0% of inhibition is determined by using DMSO (1% final concentrations). A Labcyte Echo 555 (Labcyte, Sunnyvale, Calif.) is used to dispense 200 nL from each well of the titration plate to the 384 well assay plate. A solution of enzyme ( 1/7000 dilution from aliquots; sufficient to produce 20% substrate conversion) and a separate solution of FAM-labeled cAMP PDE from Molecular Devices (product # R7506), at a final concentration of 50 nM are made in the assay buffer (10 mM Tris HCl, pH 7.2, 10 mM MgCl2, 0.05% NaN3 0.01% Tween-20, and 1 mM DTT). The enzyme is added to the assay plates by the addition of 10 μL of enzyme solution to each well, shaken to mix and incubated at room temperature for 60 minutes. The substrate is then added to the assay plates by the addition of 10 μL of substrate solution to each well, shaken to mix, and incubated at room temperature for 60 minutes. […]

T1 sequence (Q9Y233 267-1055): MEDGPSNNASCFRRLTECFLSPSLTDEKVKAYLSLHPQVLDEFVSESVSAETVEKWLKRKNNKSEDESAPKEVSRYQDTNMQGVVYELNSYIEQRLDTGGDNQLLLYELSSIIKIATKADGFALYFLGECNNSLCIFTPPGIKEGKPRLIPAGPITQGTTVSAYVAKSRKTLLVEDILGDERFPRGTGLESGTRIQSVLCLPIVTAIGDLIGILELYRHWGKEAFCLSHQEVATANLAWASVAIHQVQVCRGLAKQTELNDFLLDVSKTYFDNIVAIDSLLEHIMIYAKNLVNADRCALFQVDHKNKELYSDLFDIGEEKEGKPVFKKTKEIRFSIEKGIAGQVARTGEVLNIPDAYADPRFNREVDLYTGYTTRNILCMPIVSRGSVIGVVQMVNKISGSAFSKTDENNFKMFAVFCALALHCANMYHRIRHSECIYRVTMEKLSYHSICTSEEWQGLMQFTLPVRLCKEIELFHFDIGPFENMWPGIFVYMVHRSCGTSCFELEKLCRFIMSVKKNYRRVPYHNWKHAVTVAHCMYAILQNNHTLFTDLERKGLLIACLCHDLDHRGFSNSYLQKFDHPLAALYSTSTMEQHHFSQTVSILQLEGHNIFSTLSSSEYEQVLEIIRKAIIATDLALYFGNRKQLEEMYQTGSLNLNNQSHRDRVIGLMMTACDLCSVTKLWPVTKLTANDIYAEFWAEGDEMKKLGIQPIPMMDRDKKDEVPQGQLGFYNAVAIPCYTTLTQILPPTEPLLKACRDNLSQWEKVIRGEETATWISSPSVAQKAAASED

For `COc1ccc(CNc2nc(Cc3ccc(OC)c(OC)c3)n(-c3ccccc3)n2)cc1` [1-10, 5-(3,4-dimethoxybenzyl)-N-(4-methoxybenzyl)-1-phenyl-1H-1,2,4-triazol-3-amine], which Ki is on record?
Its Ki is 0.146 µM.

With `COc1ccc(CNc2nc(Cc3ccc(OC)c(OC)c3)n(C)n2)cc1` [1-11, 5-(3,4-dimethoxybenzyl)-N-(4-methoxybenzyl)-1-methyl-1H-1,2,4-triazol-3-amine] as the compound, how does the Ki read?
The Ki was 0.0248 µM.

`COc1ccc(CNc2nc(Cc3ccc(OC)c(OC)c3)n(-c3ccccn3)n2)cc1` [1-13, 5-(3,4-dimethoxybenzyl)-N-(4-methoxybenzyl)-1-(pyridin-2-yl)-1H-1,2,4-triazol-3-amine] was tested. Which Ki did it give?
Its Ki is 0.78 µM.

Which Ki does the source give for `COc1ccc(Cc2nc(N)nn2-c2ccccn2)cc1OC` [1-14, 5-(3,4-dimethoxybenzyl)-1-(pyridin-2-yl)-1H-1,2,4-triazol-3-amine] here?
Its Ki is 0.25 µM.

`COc1ccc(Cc2nc(N)nn2-c2ccc(Cl)c(Cl)c2)cc1OC` [1-16, 1-(3,4-dichlorophenyl)-5-(3,4-dimethoxybenzyl)-1H-1,2,4-triazol-3-amine] was tested. Which Ki did it give?
Its Ki is 0.153 µM.

For `COc1ccc(Cc2nc(N)nn2-c2cc(C)cc(C)c2)cc1OC` [1-17, 5-(3,4-dimethoxybenzyl)-1-(3,5-dimethylphenyl)-1H-1,2,4-triazol-3-amine], which Ki is on record?
The Ki was 0.101 µM.

For `COc1ccccc1COc1cc(-n2nc(N)nc2Cc2ccc(OC)c(OC)c2)ncn1` [1-35, 5-(3,4-dimethoxybenzyl)-1-(6-(2-methoxybenzyloxy)pyrimidin-4-yl)-1H-1,2,4-triazol-3-amine], which Ki is on record?
Its Ki is 0.88 µM.

Which Ki does the source give for `COc1ccc(COc2cc(-n3nc(N)nc3Cc3ccc(OC)c(OC)c3)ncn2)cc1` [1-36, 5-(3,4-dimethoxybenzyl)-1-(6-(4-methoxybenzyloxy)pyrimidin-4-yl)-1H-1,2,4-triazol-3-amine] here?
The Ki was 0.55 µM.

How did the Ki turn out when `COc1ccc(Cc2nc(N)nn2-c2cc(OCc3ccc4ccccc4c3)ncn2)cc1OC` [1-38, 5-(3,4-dimethoxybenzyl)-1-(6-(naphthalen-2-ylmethoxy)pyrimidin-4-yl)-1H-1,2,4-triazol-3-amine] was run?
The Ki was 0.054 µM.

How did the Ki turn out when `COc1ccc(Cc2nc(N)nn2-c2cc(OC3Cc4ccccc4C3)ncn2)cc1OC` [1-39, 1-(6-(2,3-dihydro-1H-inden-2-yloxy)pyrimidin-4-yl)-5-(3,4-dimethoxybenzyl)-1H-1,2,4-triazol-3-amine] was run?
Its Ki is 0.97 µM.

Which Ki does the source give for `COc1ccc(Cc2nc(N)nn2-c2cc(OCc3nc4ccccc4[nH]3)ncn2)cc1OC` [1-40, 1-(6-((1H-benzo[d]imidazol-2-yl)methoxy)pyrimidin-4-yl)-5-(3,4-dimethoxybenzyl)-1H-1,2,4-triazol-3-amine] here?
Its Ki is 0.019 µM.

With `COc1ccc(Cc2nc(N)nn2-c2cc(OCc3cn4ccccc4n3)ncn2)cc1OC` [1-41, 5-(3,4-dimethoxybenzyl)-1-(6-(imidazo[1,2-a]pyridin-2-ylmethoxy)pyrimidin-4-yl)-1H-1,2,4-triazol-3-amine] as the compound, how does the Ki read?
The Ki was 0.18 µM.

For `COc1ccc(Cc2nc(N)nn2-c2cc(OCc3ccc(-c4ccncc4)cc3)ncn2)cc1OC` [1-42, 5-(3,4-dimethoxybenzyl)-1-(6-(4-(pyridin-4-yl)benzyloxy)pyrimidin-4-yl)-1H-1,2,4-triazol-3-amine], which Ki is on record?
Its Ki is 0.27 µM.

Which Ki does the source give for `COc1ccc(Cc2nc(N)nn2-c2cc(OCc3ccccc3-c3cccs3)ncn2)cc1OC` [1-43, 5-(3,4-dimethoxybenzyl)-1-(6-(2-(thiophen-2-yl)benzyloxy)pyrimidin-4-yl)-1H-1,2,4-triazol-3-amine] here?
Its Ki is 0.019 µM.

For `COc1ccc(Cc2nc(N)nn2-c2cc(OCCN3CCNC3=O)ncn2)cc1OC` [1-44, 1-(2-(6-(3-amino-5-(3,4-dimethoxybenzyl)-1H-1,2,4-triazol-1-yl)pyrimidin-4-yloxy)ethyl)imidazolidin-2-one], which Ki is on record?
The Ki was 0.018 µM.

With `COc1ccc(Cc2nc(N)nn2-c2cc(OCc3cncc(N4CCNCC4)n3)ncn2)cc1OC` [1-45, 5-(3,4-dimethoxybenzyl)-1-(6-((6-(piperazin-1-yl)pyrazin-2-yl)methoxy)pyrimidin-4-yl)-1H-1,2,4-triazol-3-amine] as the compound, how does the Ki read?
Its Ki is 0.57 µM.

How did the Ki turn out when `COc1ccc(Cc2nc(N)nn2-c2cc(OCC3(c4ccccc4)CC3(F)F)ncn2)cc1OC` (stereo not drawn) [1-46, 1-(6-((2,2-difluoro-1-phenylcyclopropyl)methoxy)pyrimidin-4-yl)-5-(3,4-dimethoxybenzyl)-1H-1,2,4-triazol-3-amine] was run?
Its Ki is 0.0056 µM.

How did the Ki turn out when `COc1ccc(Cc2nc(N)nn2-c2cc(=O)n(CCc3ccccn3)cn2)cc1OC` [1-47, 6-(3-amino-5-(3,4-dimethoxybenzyl)-1H-1,2,4-triazol-1-yl)-3-(2-(pyridin-2-yl)ethyl)pyrimidin-4(3H)-one] was run?
The Ki was 0.07 µM.

With `COc1ccc(Cc2nc(N)nn2-c2cc(=O)n(CCN3CCOCC3)cn2)cc1OC` [1-48, 6-(3-amino-5-(3,4-dimethoxybenzyl)-1H-1,2,4-triazol-1-yl)-3-(2-morpholinoethyl)pyrimidin-4(3H)-one] as the compound, how does the Ki read?
Its Ki is under 0.0038 µM.

How did the Ki turn out when `COc1ccc(Cc2nc(N)nn2-c2cc(=O)n(Cc3ccccn3)cn2)cc1OC` [1-49, 6-(3-amino-5-(3,4-dimethoxybenzyl)-1H-1,2,4-triazol-1-yl)-3-(pyridin-2-ylmethyl)pyrimidin-4(3H)-one] was run?
Its Ki is under 0.0038 µM.

How did the Ki turn out when `COc1ccc(Cc2nc(N)nn2-c2cc(=O)n(Cc3ccccc3C(F)(F)F)cn2)cc1OC` [1-50, 6-(3-amino-5-(3,4-dimethoxybenzyl)-1H-1,2,4-triazol-1-yl)-3-(2-(trifluoromethyl)benzyl)pyrimidin-4(3H)-one] was run?
The Ki was 0.19 µM.

`COc1ccc(Cc2nc(N)nn2-c2cc(=O)n(CCc3cccs3)cn2)cc1OC` [1-51, 6-(3-amino-5-(3,4-dimethoxybenzyl)-1H-1,2,4-triazol-1-yl)-3-(2-(thiophen-2-yl)ethyl)pyrimidin-4(3H)-one] was tested. Which Ki did it give?
The Ki was 0.023 µM.

`COc1ccc(Cc2nc(N)nn2-c2cc(=O)n(Cc3nc4ccccc4[nH]3)cn2)cc1OC` [1-54, 3-((1H-benzo[d]imidazol-2-yl)methyl)-6-(3-amino-5-(3,4-dimethoxybenzyl)-1H-1,2,4-triazol-1-yl)pyrimidin-4(3H)-one] was tested. Which Ki did it give?
The Ki was 0.39 µM.

`COc1ccc(Cc2nc(N)nn2-c2cc(=O)n(Cc3cn4ccccc4n3)cn2)cc1OC` [1-55, 6-(3-amino-5-(3,4-dimethoxybenzyl)-1H-1,2,4-triazol-1-yl)-3-(imidazo[1,2-a]pyridin-2-ylmethyl)pyrimidin-4(3H)-one] was tested. Which Ki did it give?
The Ki was 0.65 µM.

Which Ki does the source give for `COc1ccc(Cc2nc(N)nn2-c2cc(=O)n(Cc3ccc(-c4ccncc4)cc3)cn2)cc1OC` [1-56, 6-(3-amino-5-(3,4-dimethoxybenzyl)-1H-1,2,4-triazol-1-yl)-3-(4-(pyridin-4-yl)benzyl)pyrimidin-4(3H)-one] here?
The Ki was 0.54 µM.

With `COc1ccc(Cc2nc(N)nn2-c2cc(=O)n(CCN3CCNC3=O)cn2)cc1OC` [1-57, 6-(3-amino-5-(3,4-dimethoxybenzyl)-1H-1,2,4-triazol-1-yl)-3-(2-(2-oxoimidazolidin-1-yl)ethyl)pyrimidin-4(3H)-one] as the compound, how does the Ki read?
Its Ki is 0.11 µM.

How did the Ki turn out when `COc1ccc(Cc2nc(N)nn2-c2cc(=O)n(Cc3cnc(N4CCNCC4)cn3)cn2)cc1OC` [1-58, 6-(3-amino-5-(3,4-dimethoxybenzyl)-1H-1,2,4-triazol-1-yl)-3-((5-(piperazin-1-yl)pyrazin-2-yl)methyl)pyrimidin-4(3H)-one] was run?
The Ki was 0.037 µM.
